“And” between values parts separate entries of the source, which are not always exact repeats. Equal entries are not always repeated. Where two headings read alike, the source gives them in different places.
How the values were obtained:
MetRS (T. brucei) = MetRS (T. brucei) (Trypanosoma brucei brucei, UniProt Q38C91); assay: MetRS (T. brucei) ATP depletion assay using Kinase-Glo; format: biochemical
T. brucei = assay: Growth inhibition assay of T. brucei cell cultures (Alamar Blue, 48 h); format: cell-based
MetRS (S. aureus) = MetRS (S. aureus) (Staphylococcus aureus, UniProt Q5HII6); assay: biochemical; settings: ATP depletion, Kinase-Glo; read-out: H) MetRS (S. aureus) ATP depletion assay using Kinase-Glo with modified cpd dilution method, IC50
Sequence of MetRS (S. aureus) (Q5HII6 whole entry): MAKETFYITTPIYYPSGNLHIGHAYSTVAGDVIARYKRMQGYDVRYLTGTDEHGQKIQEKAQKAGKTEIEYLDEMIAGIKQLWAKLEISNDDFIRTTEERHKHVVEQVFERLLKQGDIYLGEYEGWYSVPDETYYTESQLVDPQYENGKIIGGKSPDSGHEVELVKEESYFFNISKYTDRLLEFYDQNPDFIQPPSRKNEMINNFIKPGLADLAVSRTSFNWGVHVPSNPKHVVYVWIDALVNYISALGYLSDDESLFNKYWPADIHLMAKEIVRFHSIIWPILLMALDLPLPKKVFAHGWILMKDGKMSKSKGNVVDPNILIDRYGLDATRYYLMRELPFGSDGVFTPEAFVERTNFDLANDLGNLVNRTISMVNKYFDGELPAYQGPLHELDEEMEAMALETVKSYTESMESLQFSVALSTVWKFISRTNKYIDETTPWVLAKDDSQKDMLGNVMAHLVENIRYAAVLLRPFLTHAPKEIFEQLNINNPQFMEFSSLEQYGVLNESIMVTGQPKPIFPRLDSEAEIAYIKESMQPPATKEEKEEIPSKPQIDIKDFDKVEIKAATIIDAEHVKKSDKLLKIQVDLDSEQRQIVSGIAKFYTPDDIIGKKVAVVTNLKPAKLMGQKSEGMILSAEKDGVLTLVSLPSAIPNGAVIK

[1] = Trypanosoma brucei; read-out: B) T. brucei EC50

Sequence of MetRS (T. brucei) (Q38C91 entry or part of it): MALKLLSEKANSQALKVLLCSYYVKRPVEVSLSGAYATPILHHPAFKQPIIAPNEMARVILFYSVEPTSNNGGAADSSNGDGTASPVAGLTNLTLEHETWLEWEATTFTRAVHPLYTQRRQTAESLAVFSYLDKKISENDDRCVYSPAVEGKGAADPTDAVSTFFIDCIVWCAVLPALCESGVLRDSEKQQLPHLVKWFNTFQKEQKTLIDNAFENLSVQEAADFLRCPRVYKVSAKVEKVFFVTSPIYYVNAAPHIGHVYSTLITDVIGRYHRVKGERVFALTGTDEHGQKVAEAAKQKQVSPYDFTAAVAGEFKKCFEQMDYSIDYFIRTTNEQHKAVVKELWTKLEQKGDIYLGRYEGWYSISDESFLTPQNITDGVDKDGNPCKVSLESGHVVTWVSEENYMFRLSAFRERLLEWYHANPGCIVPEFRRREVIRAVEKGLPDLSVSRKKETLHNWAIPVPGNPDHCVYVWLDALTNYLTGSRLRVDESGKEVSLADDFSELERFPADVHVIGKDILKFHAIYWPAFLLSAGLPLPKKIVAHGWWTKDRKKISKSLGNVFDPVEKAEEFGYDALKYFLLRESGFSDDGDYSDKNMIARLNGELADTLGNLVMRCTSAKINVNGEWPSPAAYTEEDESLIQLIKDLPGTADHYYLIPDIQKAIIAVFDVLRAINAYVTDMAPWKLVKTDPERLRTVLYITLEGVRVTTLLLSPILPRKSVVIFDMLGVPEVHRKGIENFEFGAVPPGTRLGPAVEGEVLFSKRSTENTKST

| Compound | IC50 (MetRS (T. brucei)) | EC50 (T. brucei; [1]) | IC50 (MetRS (S. aureus)) | EC50 (T. brucei; read-out: B) T. brucei EC50) |
| --- | --- | --- | --- | --- |
| O=C(CCOc1ccc(Cl)cc1Cl)NCc1nc2ccc(F)nc2[nH]1 [Compound 1705, 3-(2,4-dichlorophenoxy)-N-({5-fluoro-3H-imidazo[4,5-b]pyridin-2-yl}methyl)propanamide] | 100 nM | 8840 nM | 1690 nM |  |
| O=C(NCc1nc2cccnc2[nH]1)OCCc1ccc(Cl)cc1Cl [Compound 1706, 2-(2,4-dichlorophenyl)ethyl N-{3H-imidazo[4,5-b]pyridin-2-ylmethyl}carbamate] | 38 nM | 2760 nM | 83 nM |  |
| CC(=O)N(CCCc1nc2ccc(Cl)nc2[nH]1)Cc1cc(Cl)cc(Cl)c1 [Compound 1895, N-(3-(5-chloro-1H-imidazo[4,5-b]pyridin-2-yl)propyl)-N-(3,5-dichlorobenzyl)acetamide] | 17 nM | 569 nM | 445 nM |  |
| CC(=O)N(CCNc1nc2nc(F)ccc2[nH]1)Cc1cc(Cl)cc(Cl)c1 [Compound 1897, N-(3,5-dichlorobenzyl)-N-(2-((5-fluoro-1H-imidazo[4,5-b]pyridin-2-yl)amino)ethyl) acetamide] | 16 nM | 653 nM | 606 nM |  |
| Clc1ccc2[nH]c(N3CCC[C@H](NCc4cc(Br)cc(Br)c4)C3)nc2n1 [Compound 1908, (S)-1-(5-chloro-1H-imidazo[4,5-b]pyridin-2-yl)-N-(3,5-dibromobenzyl) piperidin-3-amine] | 15 nM | 85.2 nM | 155 nM |  |
| CC(=O)N(CCN(C)c1nc2nc(F)ccc2[nH]1)Cc1cc(Cl)cc(Cl)c1 [Compound 1914, N-[(3,5-dichlorophenyl)methyl]-N-[2-({5-fluoro-1H-imidazo[4,5-b]pyridin-2-yl}(methyl)amino)ethyl]acetamide] | 18 nM | 252 nM | 303 nM |  |
| Oc1c(Cl)cc(Cl)cc1CN[C@H]1CCCN(c2nc3nc(Cl)ccc3[nH]2)C1 [Compound 1921] | 25 nM | 241 nM | 1570 nM |  |
| Clc1cc(Cl)cc(NC[C@@H]2CCCN(c3nc4nc(Cl)ccc4[nH]3)C2)c1 [Compound 1923, (S)-3,5-dichloro-N-((1-(5-chloro-1H-imidazo[4,5-b]pyridin-2-yl)piperidin-3-yl)methyl)aniline] | 32 nM | 566 nM | 504 nM |  |
| CCOc1c(Cl)cc(Cl)cc1CNCCN(C)c1nc2nc(Cl)ccc2[nH]1 [Compound 1925, 5-chloro-N-(2-{[(3,5-dichloro-2-ethoxyphenyl)methyl]amino}ethyl)-N-methyl-3H-imidazo[4,5-b]pyridin-2-amine] | 15 nM | 314 nM | 266 nM |  |
| CCOc1c(Br)cc(Cl)cc1CN[C@H]1CCCN(c2nc3nc(Cl)ccc3[nH]2)C1 [Compound 1937, (S)—N-(3-bromo-5-chloro-2-ethoxybenzyl)-1-(5-chloro-1H-imidazo[4,5-b]pyridin-2-yl)piperidin-3-amine] | 19 nM | 230 nM |  |  |
| CCNc1c(Cl)cc(Cl)cc1CN[C@H]1CCCN(c2nc3nc(Cl)ccc3[nH]2)C1 [Compound 1940, (S)-1-(5-chloro-1H-imidazo[4,5-b]pyridin-2-yl)-N-(3,5-dichloro-2-(ethylamino)benzyl)piperidin-3-amine] | 42 nM | 359 nM |  |  |
| COc1ccc(Oc2cccc(NCc3nc4ccccc4[nH]3)c2)c(Cl)c1 [Compound 1941, N-(1H-1,3-benzodiazol-2-ylmethyl)-3-(2-chloro-4-methoxyphenoxy)aniline] | 273 nM | 3130 nM |  |  |
| CCC(=O)N(CCN(C)c1nc2nc(Cl)ccc2[nH]1)Cc1cc(Cl)cc(Cl)c1 [Compound 1942, N-(3,5-dichlorobenzyl)-N-(2-(5-chloro-N-methyl-1H-imidazo[4,5-b]pyridin-2-ylamino)ethyl)propionamide] | 20 nM | 145 nM | 104 nM |  |
| CC(=O)N(C1CCNc2c(Cl)cc(Cl)cc21)[C@H]1CCCN(c2nc3nc(Cl)ccc3[nH]2)C1 (stereo partly drawn) [Compound 1943] | 2130 nM and 3540 nM | 419 nM |  | 389 nM |
| O=C(CCc1nc2nc(Cl)ccc2[nH]1)NCc1cc(Cl)cc(Cl)c1 [Compound 1944, 3-{5-chloro-1H-imidazo[4,5-b]pyridin-2-yl}-N-[(3,5-dichlorophenyl)methyl]propanamide] | 535 nM | 11700 nM |  |  |
| CC(=O)N1CCC(N(C(C)=O)[C@H]2CCCN(c3nc4nc(Cl)ccc4[nH]3)C2)c2cc(Cl)cc(Cl)c21 (stereo partly drawn) [Compound 1945] | > 10000 nM | 13700 nM |  |  |
| COc1ccc(Oc2cc(NCc3nc4ccccc4[nH]3)ccn2)c(Cl)c1 [Compound 1950, N-(1H-1,3-benzodiazol-2-ylmethyl)-2-(2-chloro-4-methoxyphenoxy)pyridin-4-amine] | 50 nM |  | 797 nM |  |
| O=C(CSc1nc2ccc(Cl)nc2[nH]1)NCc1cc(Cl)cc(Cl)c1 [Compound 1951, 2-({5-chloro-3H-imidazo[4,5-b]pyridin-2-yl}sulfanyl)-N-[(3,5-dichlorophenyl)methyl]acetamide] | 288 nM | 664 nM |  |  |

| Compound | IC50 (MetRS (T. brucei)) | EC50 (T. brucei; [1]) | IC50 (MetRS (S. aureus)) | EC50 (T. brucei; read-out: B) T. brucei EC50) |
| --- | --- | --- | --- | --- |
| Clc1cc(Cl)cc(CNc2cccc(-c3nc4ccc(Cl)cc4[nH]3)c2)c1 [Compound 1952, 3-(6-chloro-1H-1,3-benzodiazol-2-yl)-N-[(3,5-dichlorophenyl)methyl]aniline] | 2280 nM and 1740 nM | 187 nM |  | 367 nM |
| O=C(Nc1cccc(-c2nc3ccc(Cl)cc3[nH]2)c1)c1cc(Cl)cc(Cl)c1 [Compound 1953, 3,5-dichloro-N-[3-(6-chloro-1H-1,3-benzodiazol-2-yl)phenyl]benzamide] | > 10000 nM | 903 nM |  | 812 nM |
| Fc1ccc2nc(NCCCNc3cc(Cl)cc(Cl)c3)[nH]c2n1 [Compound 1954, 3,5-dichloro-N-[3-({5-fluoro-3H-imidazo[4,5-b]pyridin-2-yl}amino)propyl]aniline] | 61 nM | 369 nM | 928 nM | 565 nM |
| CCN(Cc1cc(Cl)cc(Cl)c1)[C@H]1CCCN(c2nc3ccc(Cl)nc3[nH]2)C1 [Compound 1955, (S)-1-(5-chloro-1H-imidazo[4,5-b]pyridin-2-yl)-N-(3,5-dichlorobenzyl)-N-ethylpiperidin-3-amine] | 286 nM | 1740 nM |  |  |
| Fc1ccc2nc(NCCCNc3ccc(Cl)cc3Cl)[nH]c2n1 [Compound 1956, N1-(2,4-dichlorophenyl)-N3-(5-fluoro-3H-imidazo[4,5-b]pyridin-2-yl)propane-1,3-diamine] | 325 nM | 1550 nM |  |  |
| CN(CCN(Cc1cc(Cl)cc(Cl)c1)C(=O)CN)c1nc2nc(Cl)ccc2[nH]1 [Compound 1957, 2-amino-N-[2-({5-chloro-1H-imidazo[4,5-b]pyridin-2-yl}(methyl)amino)ethyl]-N-[(3,5-dichlorophenyl)methyl]acetamide] | 11 nM |  | 424 nM |  |
| CN(CCN(Cc1cc(Cl)cc(Cl)c1)C(=O)CCN)c1nc2nc(Cl)ccc2[nH]1 [Compound 1958, 3-amino-N-[2-({5-chloro-1H-imidazo[4,5-b]pyridin-2-yl}(methyl)amino)ethyl]-N-[(3,5-dichlorophenyl)methyl]propanamide] | 13 nM | 62.4 nM | 381 nM | 33.1 nM |
| COc1ccc(Oc2ccnc(NCc3nc4ccc(F)nc4[nH]3)c2)c(Cl)c1 [Compound 1960, 4-(2-chloro-4-methoxyphenoxy)-N-({5-fluoro-3H-imidazo[4,5-b]pyridin-2-yl}methyl)pyridin-2-amine] | 21 nM |  | 12 nM |  |
| Clc1cc(Cl)cc(CN[C@H]2CCCN(C3=NCc4ccccc4N3)C2)c1 [Compound 1961] | 121 nM | 3760 nM |  |  |
| COC(=O)N(CCCNc1nc2ccc(F)nc2[nH]1)Cc1cc(Cl)cc(Cl)c1 [Compound 1964, methyl 3,5-dichlorobenzyl3-(5-fluoro-3H-imidazo[4,5-b]pyridin-2-ylamino)propylcarbamate] | 17 nM | 36.6 nM |  |  |
| COC(=O)N(CCCNc1nc2ccc(F)nc2n1C(=O)OC)Cc1cc(Cl)cc(Cl)c1 [Compound 1965, methyl 3,5-dichlorobenzyl3-(3-(methoxycarbonyl)-5-fluoro-3H-imidazo[4,5-b]pyridin-2-ylamino)propylcarbamate] | 345 nM and 322 nM | 96.2 nM |  |  |
| CCC(=O)NC(CC(=O)NCc1cc(Cl)cc(Cl)c1)c1nc2ccc(Cl)nc2[nH]1 (stereo not drawn) [Compound 1968, 3-{5-chloro-3H-imidazo[4,5-b]pyridin-2-yl}-N-[(3,5-dichlorophenyl)methyl]-3-propanamidopropanamide] | 1860 nM | > 20000 nM |  |  |
| NC(CC(=O)NCc1cc(Cl)cc(Cl)c1)c1nc2ccc(Cl)nc2[nH]1 (stereo not drawn) [Compound 1969, 3-amino-3-(5-chloro-3H-imidazo[4,5-b]pyridin-2-yl)-N-(3,5-dichlorobenzyl)propanamide] | 782 nM | 7960 nM |  |  |
| CN(CCN(Cc1cc(Cl)cc(Cl)c1)C(N)=O)c1nc2ccc(Cl)nc2[nH]1 [Compound 1972, 1-(3,5-dichlorobenzyl)-1-(2-(5-chloro-N-methyl-1H-imidazo[4,5-b]pyridin-2-ylamino)ethyl)urea] | 27 nM |  | 140 nM |  |
| O=C(CNc1cc(Cl)cc(Cl)c1)NCc1nc2ccc(Cl)nc2[nH]1 [Compound 1990, N-({5-chloro-3H-imidazo[4,5-b]pyridin-2-yl}methyl)-2-[(3,5-dichlorophenyl)amino]acetamide] | 17 nM | 2040 nM |  |  |
| O=C(NCc1cc(Cl)cc(Cl)c1)NCc1nc2ccc(Cl)nc2[nH]1 [Compound 1991, 3-({5-chloro-3H-imidazo[4,5-b]pyridin-2-yl}methyl)-1-[(3,5-dichlorophenyl)methyl]urea] | 18 nM | 2070 nM |  |  |
| Clc1cc(Cl)cc(NCCNCc2nc3ccc(Cl)nc3[nH]2)c1 [Compound 1994, ({5-chloro-3H-imidazo[4,5-b]pyridin-2-yl}methyl)({2-[(3,5-dichlorophenyl)amino]ethyl})amine] | 59 nM | 1410 nM |  |  |

— patent US10913736B2 (UNIVERSITY OF WASHINGTON, priority 2014, dated 2021)
